In ChEMBL document CHEMBL3217541, “Optimisation of aqueous solubility in a series of G protein coupled receptor 119 (GPR119) agonists” (Medchemcomm, 2013):
In brackets after ≈: the same amount, converted by molar mass.

Key:
[1] = Chemical stability of the compound at pH 6 at 10 uM after 18 hrs incubation at 65 degC; assay type: physicochemical; settings: buffer
[2] = Chemical stability of the compound at pH 1 at 10 uM after 18 hrs incubation at 65 degC; assay type: physicochemical; settings: buffer
[3] = Chemical stability of the compound at pH 10 at 10 uM after 18 hrs incubation at 65 degC; assay type: physicochemical; settings: buffer
[4] = Chemical stability of the compound at pH 4 at 10 uM after 18 hrs incubation at 65 degC; assay type: physicochemical; settings: buffer
[5] = Chemical stability of the compound at pH 8 at 10 uM after 18 hrs incubation at 65 degC; assay type: physicochemical; settings: buffer
physchem [6] = settings: aqueous phosphate buffer, pH 7.4
in vitro = settings: human, liver microsomes
Cytochrome P450 2C9 = Cytochrome P450 2C9 (Homo sapiens, UniProt P11712); experiment: Inhibition of CYP2C9 (unknown origin); assay type: ADME
Cytochrome P450 1A2 = molecular target: T1, Cytochrome P450 1A2 (Homo sapiens, UniProt P05177); experiment: Inhibition of CYP1A2 (unknown origin); assay type: ADME
T1 sequence (P05177 whole entry): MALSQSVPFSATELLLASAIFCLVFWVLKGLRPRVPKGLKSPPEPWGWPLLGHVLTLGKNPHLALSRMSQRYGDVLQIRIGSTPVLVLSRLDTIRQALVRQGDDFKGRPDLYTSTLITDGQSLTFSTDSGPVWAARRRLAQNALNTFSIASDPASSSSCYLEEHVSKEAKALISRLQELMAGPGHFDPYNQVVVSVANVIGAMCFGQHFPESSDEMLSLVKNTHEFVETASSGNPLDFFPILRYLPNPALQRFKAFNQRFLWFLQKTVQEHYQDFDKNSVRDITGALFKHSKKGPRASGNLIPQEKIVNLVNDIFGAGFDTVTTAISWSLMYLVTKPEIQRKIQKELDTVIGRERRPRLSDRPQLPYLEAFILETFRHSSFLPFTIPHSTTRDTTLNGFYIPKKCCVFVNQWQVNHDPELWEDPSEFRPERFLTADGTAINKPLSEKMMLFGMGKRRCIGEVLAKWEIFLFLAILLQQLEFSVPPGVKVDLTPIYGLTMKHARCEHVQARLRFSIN

Cytochrome P450 3A4 = Cytochrome P450 3A4 (Homo sapiens, UniProt P08684); experiment: Inhibition of CYP3A4 (unknown origin); assay type: ADME
[7] = molecular target: Voltage-gated inwardly rectifying potassium channel KCNH2 (Homo sapiens, UniProt Q12809); experiment: Inhibition of human ERG
Cytochrome P450 2C19 = Cytochrome P450 2C19 (Homo sapiens, UniProt P33261); experiment: Inhibition of CYP2C19 (unknown origin); assay type: ADME
Cytochrome P450 2D6 = Cytochrome P450 2D6 (Homo sapiens, UniProt P10635); experiment: Inhibition of CYP2D6 (unknown origin); assay type: ADME
[8] = molecular target: T2, Glucose-dependent insulinotropic receptor (Mus musculus, UniProt Q7TQP3); experiment: Agonist activity at mouse GPR119 transfected in HEK293 cells assessed as cAMP accumulation after 45 mins incubation by HTRF assay; assay type: functional, cell-based
T2 sequence (Q7TQP3 whole entry): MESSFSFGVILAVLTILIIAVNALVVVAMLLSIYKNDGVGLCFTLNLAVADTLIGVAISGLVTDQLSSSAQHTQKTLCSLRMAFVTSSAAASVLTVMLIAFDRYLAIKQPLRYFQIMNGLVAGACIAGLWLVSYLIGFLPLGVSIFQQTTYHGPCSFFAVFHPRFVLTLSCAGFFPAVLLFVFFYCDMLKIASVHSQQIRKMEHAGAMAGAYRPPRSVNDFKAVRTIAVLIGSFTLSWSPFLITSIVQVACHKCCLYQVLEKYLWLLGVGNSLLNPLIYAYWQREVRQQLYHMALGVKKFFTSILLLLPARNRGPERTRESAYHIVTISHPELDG

[9] = molecular target: T3, Glucose-dependent insulinotropic receptor (Homo sapiens, UniProt Q8TDV5); experiment: Agonist activity at human GPR119 transfected in HEK293 cells assessed as cAMP accumulation after 45 mins incubation by HTRF assay; assay type: functional, cell-based
T3 sequence (Q8TDV5 whole entry): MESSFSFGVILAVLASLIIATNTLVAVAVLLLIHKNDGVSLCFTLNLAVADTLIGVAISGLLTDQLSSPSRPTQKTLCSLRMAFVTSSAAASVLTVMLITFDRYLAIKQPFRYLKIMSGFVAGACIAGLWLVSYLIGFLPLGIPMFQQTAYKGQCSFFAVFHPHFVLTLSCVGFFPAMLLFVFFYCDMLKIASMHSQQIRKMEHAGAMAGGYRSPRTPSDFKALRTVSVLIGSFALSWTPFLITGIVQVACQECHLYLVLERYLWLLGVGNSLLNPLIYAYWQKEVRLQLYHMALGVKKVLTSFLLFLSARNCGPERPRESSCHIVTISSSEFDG

physchem [10] = settings: octanol/phosphate buffer, pH 7.4
[11] = Apparent permeability across basolateral to apical side of human Caco2 cells; assay type: ADME, cell-based; settings: Caco-2
[12] = Fraction unbound in mouse plasma; assay type: ADME, cell-free
[13] = Fraction unbound in rat plasma; assay type: ADME, cell-free
[14] = Apparent permeability across apical to basolateral side of human Caco2 cells; assay type: ADME, cell-based; settings: Caco-2

Sequence of Cytochrome P450 2C19 (P33261 whole entry): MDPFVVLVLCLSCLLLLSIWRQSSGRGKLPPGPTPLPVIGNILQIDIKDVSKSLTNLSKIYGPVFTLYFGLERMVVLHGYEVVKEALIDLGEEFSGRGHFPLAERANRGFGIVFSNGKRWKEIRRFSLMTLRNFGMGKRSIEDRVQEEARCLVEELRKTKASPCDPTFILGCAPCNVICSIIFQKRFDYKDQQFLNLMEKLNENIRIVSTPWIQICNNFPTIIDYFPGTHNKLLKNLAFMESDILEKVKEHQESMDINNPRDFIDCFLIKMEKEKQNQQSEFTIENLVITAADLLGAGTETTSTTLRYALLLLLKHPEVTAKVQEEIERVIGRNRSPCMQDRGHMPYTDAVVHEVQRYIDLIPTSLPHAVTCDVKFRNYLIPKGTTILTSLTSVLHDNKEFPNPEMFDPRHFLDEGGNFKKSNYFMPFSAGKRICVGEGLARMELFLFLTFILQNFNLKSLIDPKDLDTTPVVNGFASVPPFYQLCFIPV
Sequence of Cytochrome P450 3A4 (P08684 whole entry): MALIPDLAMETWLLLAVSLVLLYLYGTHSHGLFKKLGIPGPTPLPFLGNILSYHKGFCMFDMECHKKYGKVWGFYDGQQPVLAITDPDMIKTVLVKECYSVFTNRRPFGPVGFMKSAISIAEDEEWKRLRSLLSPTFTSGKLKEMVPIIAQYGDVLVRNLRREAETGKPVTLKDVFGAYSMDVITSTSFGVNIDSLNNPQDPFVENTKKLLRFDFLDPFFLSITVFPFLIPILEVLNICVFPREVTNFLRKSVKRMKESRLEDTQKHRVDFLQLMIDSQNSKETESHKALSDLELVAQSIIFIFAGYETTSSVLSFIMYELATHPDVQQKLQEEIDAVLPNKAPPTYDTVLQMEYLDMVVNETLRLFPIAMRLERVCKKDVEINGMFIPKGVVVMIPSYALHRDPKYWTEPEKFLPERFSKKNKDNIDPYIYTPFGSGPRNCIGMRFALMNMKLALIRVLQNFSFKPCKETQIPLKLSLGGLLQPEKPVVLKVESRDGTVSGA
Sequence of Cytochrome P450 2C9 (P11712 whole entry): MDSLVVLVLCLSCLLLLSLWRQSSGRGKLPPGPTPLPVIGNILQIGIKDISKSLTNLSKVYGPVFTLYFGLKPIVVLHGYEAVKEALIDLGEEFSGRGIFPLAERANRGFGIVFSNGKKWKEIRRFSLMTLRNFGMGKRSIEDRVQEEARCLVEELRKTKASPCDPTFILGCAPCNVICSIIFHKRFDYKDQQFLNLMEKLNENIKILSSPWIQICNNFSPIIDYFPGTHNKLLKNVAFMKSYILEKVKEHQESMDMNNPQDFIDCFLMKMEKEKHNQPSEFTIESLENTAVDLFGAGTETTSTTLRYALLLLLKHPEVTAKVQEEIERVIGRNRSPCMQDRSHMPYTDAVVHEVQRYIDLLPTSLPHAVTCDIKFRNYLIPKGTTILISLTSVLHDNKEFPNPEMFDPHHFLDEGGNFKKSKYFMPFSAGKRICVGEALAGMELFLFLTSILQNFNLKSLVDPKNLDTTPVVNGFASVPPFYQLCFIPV
Sequence of Cytochrome P450 2D6 (P10635 whole entry): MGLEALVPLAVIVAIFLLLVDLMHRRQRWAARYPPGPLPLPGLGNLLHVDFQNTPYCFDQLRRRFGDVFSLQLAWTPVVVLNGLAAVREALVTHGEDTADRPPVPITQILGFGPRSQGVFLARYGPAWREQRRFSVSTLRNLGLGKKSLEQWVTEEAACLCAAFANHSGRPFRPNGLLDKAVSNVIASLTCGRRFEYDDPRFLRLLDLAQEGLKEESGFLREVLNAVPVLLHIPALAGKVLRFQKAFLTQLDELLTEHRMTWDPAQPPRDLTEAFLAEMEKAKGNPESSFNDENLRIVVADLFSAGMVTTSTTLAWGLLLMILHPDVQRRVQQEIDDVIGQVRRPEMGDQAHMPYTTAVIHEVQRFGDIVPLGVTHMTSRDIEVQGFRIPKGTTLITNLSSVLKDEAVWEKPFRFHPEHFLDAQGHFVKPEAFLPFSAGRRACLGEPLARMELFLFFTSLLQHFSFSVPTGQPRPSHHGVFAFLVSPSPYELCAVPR
Sequence of Voltage-gated inwardly rectifying potassium channel KCNH2 (Q12809 whole entry): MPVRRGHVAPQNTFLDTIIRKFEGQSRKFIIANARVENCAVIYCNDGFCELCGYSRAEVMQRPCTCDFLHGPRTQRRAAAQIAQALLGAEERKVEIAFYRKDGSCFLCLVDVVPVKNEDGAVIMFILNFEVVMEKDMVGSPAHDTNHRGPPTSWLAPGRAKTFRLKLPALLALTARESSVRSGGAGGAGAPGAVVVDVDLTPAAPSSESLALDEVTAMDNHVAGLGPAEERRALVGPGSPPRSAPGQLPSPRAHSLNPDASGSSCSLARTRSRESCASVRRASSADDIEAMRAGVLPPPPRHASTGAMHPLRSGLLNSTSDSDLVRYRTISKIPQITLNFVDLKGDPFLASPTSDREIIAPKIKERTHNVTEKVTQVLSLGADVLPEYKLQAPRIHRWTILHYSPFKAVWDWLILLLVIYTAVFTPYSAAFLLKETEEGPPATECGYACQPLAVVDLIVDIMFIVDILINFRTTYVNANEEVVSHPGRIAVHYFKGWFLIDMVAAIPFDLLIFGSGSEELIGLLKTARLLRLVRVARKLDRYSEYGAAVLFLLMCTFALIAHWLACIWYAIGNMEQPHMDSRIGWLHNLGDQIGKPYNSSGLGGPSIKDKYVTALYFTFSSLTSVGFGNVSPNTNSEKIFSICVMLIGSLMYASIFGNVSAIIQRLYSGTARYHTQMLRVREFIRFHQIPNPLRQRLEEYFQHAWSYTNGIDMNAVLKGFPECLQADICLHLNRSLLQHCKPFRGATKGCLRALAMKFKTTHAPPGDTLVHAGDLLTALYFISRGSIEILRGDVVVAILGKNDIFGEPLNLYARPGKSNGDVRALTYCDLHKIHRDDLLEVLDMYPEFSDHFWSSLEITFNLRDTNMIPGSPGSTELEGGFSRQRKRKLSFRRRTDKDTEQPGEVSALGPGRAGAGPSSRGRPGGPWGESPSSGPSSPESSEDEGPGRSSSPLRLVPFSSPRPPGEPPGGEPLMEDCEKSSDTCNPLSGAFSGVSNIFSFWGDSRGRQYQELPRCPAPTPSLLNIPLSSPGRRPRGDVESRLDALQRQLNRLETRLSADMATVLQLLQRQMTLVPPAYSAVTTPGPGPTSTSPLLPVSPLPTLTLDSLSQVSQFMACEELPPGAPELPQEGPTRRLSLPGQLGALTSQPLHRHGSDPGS

Compound | solubility at 24 h (physchem [6]) [µM] | microsomal CLint (in vitro) [µL/min/mg] | EC50 [8] [nM] | EC50 [9] [nM] | logD (physchem [10]) | other results
CC(C)(C)OC(=O)N1CCN(c2ncc(OCc3ccc(S(C)(=O)=O)cc3)cn2)CC1 | 0.03 (≈ 0.0135 µg/mL) |  |  |  |  | half-life at 10 µM [1]: 2.88 h; half-life at 10 µM [2]: < 1.8 h; half-life at 10 µM [3]: < 0.144 h; half-life at 10 µM [4]: 1.44 h; half-life at 10 µM [5]: 2.64 h
C[C@@H]1CN(C(=O)OC(C)(C)C)CCN1c1ncc(OCc2ccncc2C#N)cn1 |  | 43 |  |  |  | 
CC(C)c1nc(N2CCN(c3ncc(OCc4ccncc4C#N)cn3)[C@H](C)C2)no1 | 6 (≈ 2.52 µg/mL) | 23 |  |  |  | INH (Cytochrome P450 2C9): > 25 µM; INH (Cytochrome P450 1A2): > 25 µM; INH (Cytochrome P450 3A4): > 25 µM; INH [7]: 10 µM; INH (Cytochrome P450 2C19): > 25 µM; INH (Cytochrome P450 2D6): > 25 µM
C[C@@H]1CN(c2nnc(C(F)(F)F)o2)CCN1c1ncc(OCc2ccncc2C#N)cn1 |  |  |  |  |  | half-life at 10 µM [1]: > 240 h; half-life at 10 µM [2]: 10.8 h; half-life at 10 µM [3]: 13.4 h; half-life at 10 µM [4]: > 240 h; half-life at 10 µM [5]: > 240 h
C[C@@H]1CN(c2noc(C3(C)COC3)n2)CCN1c1ncc(OCc2ccncc2C#N)cn1 | 59 (≈ 26.5 µg/mL) | 43 | 100 | 63.1 | 3 | 
C[C@@H]1CN(c2noc(C3COCCO3)n2)CCN1c1ncc(OCc2ccncc2C#N)cn1 (some centres undefined) | 30 (≈ 13.9 µg/mL) | 26 | 631 | 100 | 2.3 | 
C[C@@H]1CN(c2noc(C(C)(C)O)n2)CCN1c1ncc(OCc2ccncc2C#N)cn1 | 8 (≈ 3.49 µg/mL) | 14 | 631 | 631 | 2.4 | 
C[C@@H]1CN(C(=O)OC2(C(F)(F)F)CCOC2)CCN1c1ncc(OCc2ccncc2C#N)cn1 (some centres undefined) | 34 (≈ 16.7 µg/mL) | 107 |  |  | 3.1 | 
C[C@@H]1CN(C(=O)OC2(C(F)(F)F)COC2)CCN1c1ncc(OCc2ccncc2C#N)cn1 | 110 (≈ 52.6 µg/mL) | 44 | 158 | 20 | 2.5 | half-life at 10 µM [1]: > 240 h; Papp B→A [11]: 9 ×10⁻⁶ cm/s; INH (Cytochrome P450 2C9): > 25 µM; half-life at 10 µM [2]: 9.84 h; half-life at 10 µM [3]: 0.96 h; INH (Cytochrome P450 1A2): > 25 µM; half-life at 10 µM [4]: > 240 h; INH (Cytochrome P450 3A4): > 25 µM; INH [7]: 12 µM; fraction unbound [12]: 0.081; fraction unbound [13]: 0.047; INH (Cytochrome P450 2C19): > 25 µM; half-life at 10 µM [5]: > 240 h; Papp A→B [14]: 16 ×10⁻⁶ cm/s; INH (Cytochrome P450 2D6): > 25 µM
CC(C)C1(OC(=O)N2CCN(c3ncc(OCc4ccncc4C#N)cn3)[C@H](C)C2)COC1 |  | 308 | 501 | 200 |  | 
C[C@@H]1CN(C(=O)OC2(C)COC2)CCN1c1ncc(OCc2ccncc2C#N)cn1 | > 860 | 23 | 631 | 200 |  | 
C[C@@H]1CN(C(=O)OC2CCOCC2)CCN1c1ncc(OCc2ccncc2C#N)cn1 | 110 (≈ 48.2 µg/mL) | 37 | > 7940 | 631 | 2.2 | 
C[C@@H]1CN(C(=O)OC2COC2)CCN1c1ncc(OCc2ccncc2C#N)cn1 | > 2200 | 5 |  |  | 1.6 | 
N#Cc1cnccc1COc1cnc(N2CCN(C(=O)OC3CCOC3)CC2)nc1 (racemic) | 180 (≈ 73.9 µg/mL) |  |  |  |  | 
